What all share (test): Kinobeads competition binding, L-363 cell lysate
What all share (parameters): endogenous in cells
What all share (details): 10 μM free compound, L-363 lysate

One test concerns the target CDK9 (Homo sapiens, UniProt P50750). An outline of the steps:
(§1)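 L-363 plasma cell leukaemia cells were treated 3 h with 20 μM MG132 before harvest. Lysate was preincubated with 10 μM free compound or DMSO, then captured on matrix bearing immobilized compound; bound proteins were eluted, SDS-PAGE separated, trypsin-digested, iTRAQ-labeled and quantified by LC-MS/MS reporter ions.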

Another test addresses TYK2 (Homo sapiens, UniProt P29597). An outline of the steps:
as §1

For a further test, the target named is T1, IRAK4 (Homo sapiens, UniProt Q9NWZ3).
T1 sequence (Q9NWZ3 1-460): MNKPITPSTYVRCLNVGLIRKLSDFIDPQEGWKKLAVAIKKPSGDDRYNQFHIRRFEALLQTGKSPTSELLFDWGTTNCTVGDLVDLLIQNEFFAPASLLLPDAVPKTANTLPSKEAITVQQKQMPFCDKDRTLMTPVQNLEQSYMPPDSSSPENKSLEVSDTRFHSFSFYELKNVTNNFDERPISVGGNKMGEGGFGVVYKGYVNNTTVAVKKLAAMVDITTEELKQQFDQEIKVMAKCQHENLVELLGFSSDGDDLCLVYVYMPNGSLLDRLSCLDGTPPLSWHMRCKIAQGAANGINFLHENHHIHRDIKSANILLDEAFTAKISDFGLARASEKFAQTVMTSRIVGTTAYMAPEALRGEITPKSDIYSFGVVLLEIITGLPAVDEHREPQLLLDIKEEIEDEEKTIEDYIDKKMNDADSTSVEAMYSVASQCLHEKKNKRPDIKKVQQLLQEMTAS
In outline: as §1

The target of another test is T2, PKD2 (Homo sapiens, UniProt Q9BZL6).
T2 sequence (Q9BZL6 1-878): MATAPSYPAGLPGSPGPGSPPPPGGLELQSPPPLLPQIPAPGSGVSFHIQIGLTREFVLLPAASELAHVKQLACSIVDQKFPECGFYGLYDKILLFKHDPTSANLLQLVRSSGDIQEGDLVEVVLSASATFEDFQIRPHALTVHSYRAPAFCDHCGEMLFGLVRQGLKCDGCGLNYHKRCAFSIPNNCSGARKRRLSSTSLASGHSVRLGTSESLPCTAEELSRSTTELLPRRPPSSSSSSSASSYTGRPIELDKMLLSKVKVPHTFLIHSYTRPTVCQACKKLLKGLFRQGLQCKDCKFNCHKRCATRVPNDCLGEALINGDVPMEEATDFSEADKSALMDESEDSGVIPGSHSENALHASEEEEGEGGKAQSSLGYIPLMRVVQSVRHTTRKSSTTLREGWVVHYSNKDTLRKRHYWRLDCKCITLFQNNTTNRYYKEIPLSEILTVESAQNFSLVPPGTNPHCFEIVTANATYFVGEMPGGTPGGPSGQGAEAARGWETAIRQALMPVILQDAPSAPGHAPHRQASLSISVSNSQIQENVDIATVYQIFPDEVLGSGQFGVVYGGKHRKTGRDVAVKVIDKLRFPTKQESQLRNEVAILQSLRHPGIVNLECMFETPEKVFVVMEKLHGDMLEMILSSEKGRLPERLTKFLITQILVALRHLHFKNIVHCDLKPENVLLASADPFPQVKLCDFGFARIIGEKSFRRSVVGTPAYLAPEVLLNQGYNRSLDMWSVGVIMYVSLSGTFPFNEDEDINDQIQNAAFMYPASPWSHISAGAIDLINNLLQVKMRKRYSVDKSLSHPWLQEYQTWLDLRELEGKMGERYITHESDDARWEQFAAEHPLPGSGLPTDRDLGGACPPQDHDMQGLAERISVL
An outline of the steps: as §1

The target of another test is HIPK2 (Homo sapiens, UniProt Q9H2X6). An outline of the steps: as §1
In a further test the target is T3, TEC (Homo sapiens, UniProt P42680).
T3 sequence (P42680 1-631): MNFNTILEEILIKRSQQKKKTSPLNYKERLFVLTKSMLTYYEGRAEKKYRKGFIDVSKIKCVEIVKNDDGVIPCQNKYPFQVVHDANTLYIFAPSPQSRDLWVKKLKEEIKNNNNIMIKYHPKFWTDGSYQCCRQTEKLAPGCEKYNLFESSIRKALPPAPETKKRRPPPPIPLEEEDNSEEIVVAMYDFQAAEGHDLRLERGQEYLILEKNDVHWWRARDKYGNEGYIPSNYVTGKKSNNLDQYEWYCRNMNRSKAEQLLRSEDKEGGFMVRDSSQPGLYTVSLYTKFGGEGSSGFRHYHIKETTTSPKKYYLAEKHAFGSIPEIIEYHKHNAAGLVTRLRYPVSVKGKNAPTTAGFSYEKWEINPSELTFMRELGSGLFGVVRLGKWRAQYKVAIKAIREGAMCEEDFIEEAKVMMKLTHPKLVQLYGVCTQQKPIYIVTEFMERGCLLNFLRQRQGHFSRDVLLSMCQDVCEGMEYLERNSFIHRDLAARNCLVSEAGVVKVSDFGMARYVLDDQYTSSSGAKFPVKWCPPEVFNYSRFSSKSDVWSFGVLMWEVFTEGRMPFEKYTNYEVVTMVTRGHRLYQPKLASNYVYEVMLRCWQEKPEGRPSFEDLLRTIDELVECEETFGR
An outline of the steps: as §1

Another test concerns the target JNK1 (Homo sapiens, UniProt P45983). In outline: as §1
For a further test, the target named is HPK1 (Homo sapiens, UniProt Q92918). In outline:
as §1

Results on one molecule are retold here after patent US20120270237A9, “METHODS FOR THE IDENTIFICATION OF KINASE INTERACTING MOLECULES AND FOR THE PURIFICATION OF KINASE PROTEINS” (Cellzone AG, priority 2009, published 2012).

TYK2, sequence (P29597 whole entry): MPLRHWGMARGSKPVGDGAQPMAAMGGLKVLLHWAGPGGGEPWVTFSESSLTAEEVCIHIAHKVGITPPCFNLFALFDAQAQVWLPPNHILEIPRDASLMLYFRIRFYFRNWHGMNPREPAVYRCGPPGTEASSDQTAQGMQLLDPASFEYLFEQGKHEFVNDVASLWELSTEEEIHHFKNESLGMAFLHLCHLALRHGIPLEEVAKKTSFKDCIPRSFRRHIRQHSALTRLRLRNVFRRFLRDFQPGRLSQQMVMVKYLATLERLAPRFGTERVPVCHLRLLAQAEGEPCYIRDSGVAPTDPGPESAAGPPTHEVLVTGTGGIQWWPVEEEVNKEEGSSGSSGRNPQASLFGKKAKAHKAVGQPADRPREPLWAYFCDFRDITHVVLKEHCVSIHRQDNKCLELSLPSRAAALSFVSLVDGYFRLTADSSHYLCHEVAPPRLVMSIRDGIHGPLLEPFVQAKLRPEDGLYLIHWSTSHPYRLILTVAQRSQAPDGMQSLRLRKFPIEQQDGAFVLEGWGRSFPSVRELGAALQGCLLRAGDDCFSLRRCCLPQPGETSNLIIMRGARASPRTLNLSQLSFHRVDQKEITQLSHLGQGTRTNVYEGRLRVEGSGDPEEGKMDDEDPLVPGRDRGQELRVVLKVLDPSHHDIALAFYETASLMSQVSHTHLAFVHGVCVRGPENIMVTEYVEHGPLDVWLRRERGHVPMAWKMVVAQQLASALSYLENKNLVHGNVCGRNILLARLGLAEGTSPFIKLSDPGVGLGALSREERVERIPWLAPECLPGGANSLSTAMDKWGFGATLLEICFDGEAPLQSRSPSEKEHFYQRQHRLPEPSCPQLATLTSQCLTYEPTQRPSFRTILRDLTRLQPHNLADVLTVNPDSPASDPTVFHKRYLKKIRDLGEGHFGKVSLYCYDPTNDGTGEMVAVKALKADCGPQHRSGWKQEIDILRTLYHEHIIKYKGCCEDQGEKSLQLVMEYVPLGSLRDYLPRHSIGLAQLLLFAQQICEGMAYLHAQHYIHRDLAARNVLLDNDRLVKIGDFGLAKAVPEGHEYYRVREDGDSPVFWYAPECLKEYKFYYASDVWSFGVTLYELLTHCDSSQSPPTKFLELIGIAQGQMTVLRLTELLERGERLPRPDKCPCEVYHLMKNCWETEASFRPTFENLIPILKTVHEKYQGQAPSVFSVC
JNK1, sequence (P45983 whole entry): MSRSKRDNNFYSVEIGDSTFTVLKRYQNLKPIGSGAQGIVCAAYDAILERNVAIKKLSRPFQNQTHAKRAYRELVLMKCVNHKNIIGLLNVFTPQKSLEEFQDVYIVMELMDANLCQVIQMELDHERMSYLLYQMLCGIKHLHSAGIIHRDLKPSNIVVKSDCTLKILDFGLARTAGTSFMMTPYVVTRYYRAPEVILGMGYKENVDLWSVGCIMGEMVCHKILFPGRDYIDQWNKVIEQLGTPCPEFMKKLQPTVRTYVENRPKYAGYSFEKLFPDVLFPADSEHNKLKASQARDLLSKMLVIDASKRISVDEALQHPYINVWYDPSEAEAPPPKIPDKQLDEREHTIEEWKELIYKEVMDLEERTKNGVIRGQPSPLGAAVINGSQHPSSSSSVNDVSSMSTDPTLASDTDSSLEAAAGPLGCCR
HIPK2, sequence (Q9H2X6 whole entry): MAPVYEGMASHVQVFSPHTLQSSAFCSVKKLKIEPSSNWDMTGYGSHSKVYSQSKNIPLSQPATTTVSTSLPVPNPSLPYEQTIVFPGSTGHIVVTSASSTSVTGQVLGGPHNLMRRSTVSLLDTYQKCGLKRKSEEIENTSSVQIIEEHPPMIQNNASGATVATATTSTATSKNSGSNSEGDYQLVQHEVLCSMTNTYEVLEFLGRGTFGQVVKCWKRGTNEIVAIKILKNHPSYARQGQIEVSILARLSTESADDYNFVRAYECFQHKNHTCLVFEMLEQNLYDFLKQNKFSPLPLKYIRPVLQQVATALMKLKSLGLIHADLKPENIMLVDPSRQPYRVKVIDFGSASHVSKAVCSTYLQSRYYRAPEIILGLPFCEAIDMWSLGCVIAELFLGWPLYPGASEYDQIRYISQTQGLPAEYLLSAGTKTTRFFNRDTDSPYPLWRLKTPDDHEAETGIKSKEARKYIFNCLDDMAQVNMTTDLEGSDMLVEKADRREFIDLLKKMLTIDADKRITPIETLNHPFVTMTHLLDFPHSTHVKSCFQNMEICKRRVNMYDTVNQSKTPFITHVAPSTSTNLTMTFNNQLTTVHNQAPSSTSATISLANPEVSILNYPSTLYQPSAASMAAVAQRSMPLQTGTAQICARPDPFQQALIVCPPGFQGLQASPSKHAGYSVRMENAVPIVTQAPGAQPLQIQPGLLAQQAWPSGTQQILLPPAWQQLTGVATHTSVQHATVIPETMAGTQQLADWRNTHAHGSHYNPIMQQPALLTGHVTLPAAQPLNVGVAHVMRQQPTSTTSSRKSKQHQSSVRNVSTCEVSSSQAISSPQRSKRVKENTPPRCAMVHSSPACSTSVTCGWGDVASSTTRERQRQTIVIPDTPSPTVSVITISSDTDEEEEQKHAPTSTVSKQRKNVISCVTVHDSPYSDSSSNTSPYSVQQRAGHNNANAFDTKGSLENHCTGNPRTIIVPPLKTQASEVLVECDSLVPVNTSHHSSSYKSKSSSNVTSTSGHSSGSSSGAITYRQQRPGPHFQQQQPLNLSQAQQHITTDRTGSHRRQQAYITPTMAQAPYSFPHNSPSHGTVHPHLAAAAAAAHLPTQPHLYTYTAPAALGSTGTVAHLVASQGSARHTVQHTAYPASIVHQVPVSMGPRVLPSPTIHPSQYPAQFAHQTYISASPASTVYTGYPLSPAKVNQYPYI
HPK1, sequence (Q92918 whole entry): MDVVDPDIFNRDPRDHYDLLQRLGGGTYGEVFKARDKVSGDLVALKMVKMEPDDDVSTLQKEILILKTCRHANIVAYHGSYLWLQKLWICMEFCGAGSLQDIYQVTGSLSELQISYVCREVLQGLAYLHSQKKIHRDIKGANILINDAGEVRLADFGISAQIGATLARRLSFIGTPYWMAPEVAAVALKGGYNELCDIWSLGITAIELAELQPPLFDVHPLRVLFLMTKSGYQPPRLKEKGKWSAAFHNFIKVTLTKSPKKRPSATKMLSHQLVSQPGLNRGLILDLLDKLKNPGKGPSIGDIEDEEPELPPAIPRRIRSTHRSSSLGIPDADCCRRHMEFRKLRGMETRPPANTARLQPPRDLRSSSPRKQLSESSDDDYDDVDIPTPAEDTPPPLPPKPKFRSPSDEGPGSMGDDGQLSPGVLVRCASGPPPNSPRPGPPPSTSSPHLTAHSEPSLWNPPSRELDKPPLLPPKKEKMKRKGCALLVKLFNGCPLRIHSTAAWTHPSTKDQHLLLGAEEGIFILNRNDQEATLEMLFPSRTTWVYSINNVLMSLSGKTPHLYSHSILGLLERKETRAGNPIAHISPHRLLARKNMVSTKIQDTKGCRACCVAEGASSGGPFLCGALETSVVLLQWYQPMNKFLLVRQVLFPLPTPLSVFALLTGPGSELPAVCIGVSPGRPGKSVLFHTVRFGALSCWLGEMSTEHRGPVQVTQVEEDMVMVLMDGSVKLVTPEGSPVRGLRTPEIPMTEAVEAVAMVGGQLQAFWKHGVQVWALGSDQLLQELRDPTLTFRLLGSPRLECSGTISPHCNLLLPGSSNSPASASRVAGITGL
CDK9, sequence (P50750 whole entry): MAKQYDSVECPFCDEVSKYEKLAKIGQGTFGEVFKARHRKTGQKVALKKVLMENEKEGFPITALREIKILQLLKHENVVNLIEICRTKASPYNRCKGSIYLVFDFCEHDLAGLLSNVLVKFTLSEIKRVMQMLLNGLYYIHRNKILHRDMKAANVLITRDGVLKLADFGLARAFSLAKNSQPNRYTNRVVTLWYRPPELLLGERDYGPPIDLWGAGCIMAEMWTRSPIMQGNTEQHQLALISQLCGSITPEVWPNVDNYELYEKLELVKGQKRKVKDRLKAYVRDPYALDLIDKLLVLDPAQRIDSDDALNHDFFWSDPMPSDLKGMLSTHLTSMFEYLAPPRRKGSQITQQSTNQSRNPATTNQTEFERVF

Consider `CS(=O)(=O)Nc1ccccc1Nc1nc(Nc2cccc(OCCN)c2)ncc1Cl` [CZC31326, N-(2-(2-(3-(2-aminoethoxy)phenylamino)-5-chloropyrimidin-4-ylamino)phenyl)methanesulfonamide], for which the inhibition at 10 µM on CDK9 was found to be 97.7%; at PKD2, 98%; at HIPK2, 95.6%; at TEC, 92.8%; on HPK1 it was 98%. Also, the Competition % at TYK2 came to 96.9%; on IRAK4 it was 97.4%; at JNK1, 87%.

What is called inhibition is how much of the control response was suppressed.
